Assay results from patent US4267184A, “Antiinflammatory 4,5-diaryl-2-(substituted-thio)pyrroles and their corresponding sulfoxides and sulfones” (E. I. Du Pont de Nemours and Company, priority 1980, dated 1981).

Tests used:
[1] = tested on: Adjuvant-Induced Arthritis in Rats; experiment: Established Adjuvant-Induced Arthritis in Rats; type: in vivo, Charles River Lewis male rats; conditions: for ED50: 168 h, oral gavage daily for 7 days, ED50% decrease from control paw volume
Method: A procedure for detecting and comparing the antiinflammatory activity of compounds in this series and standard drugs for which there is a good correlation with human efficacy is the adjuvant-induced arthritis test in rats.
(§1) The test procedures employed for determining antiinflammatory and analgesic activity are described below with test data included in Tables VII and VIII.
Charles River Lewis male rats (130-150 grams) are injected subcutaneously in plantar area of the right hind paw with 0.1 ml of adjuvant (Difco heat-killed, lyophilized Mycobacterium butyricum suspended in mineral oil 5 mg/ml). 20 Non-arthritic controls are injected with mineral oil. The animals are held for 2 weeks to allow development of arthritis. Paw volumes (uninjected, left hind paw) are measured and the adjuvant injected rats are culled and distributed to treatment groups of 10 of equal disease severity. Non-arthritic controls are distributed to 2 groups of 10. The rats are given oral doses of compound or PVA-Acacia (Polyvinyl Alcohol 1%, Gum Acacia, U.S.P. 5%, Methylparaben 0.5%) (10 ml/kg) by gavage on that day and on the 6 following days. One day after the last dose the paw volumes (uninjected, left hind paw) are measured using a Ugo Basile Volume Differential Meter Model 7101. [formula]
Dose-response regression lines of the % decrease are plotted on semi-log paper by visual fit and the ED50% decrease from control paw volume is determined by inspection.

[2] = tested on: phenylquinone writhing in mice; experiment: Phenylquinone Writhing Test (analgesic activity); type: in vivo, female white mice; conditions: Mus musculus, oral, phenylquinone i.p., effective analgesic dose for 50% of the mice
From the text: A procedure for detecting and comparing the analgesic activity of compounds in this series and standard drugs for which there is a good correlation with human efficacy is the phenylquinone writhing test.
as §1
The phenylquinone writhing test, modified from Siegmund, et al., Proc. Soc. Exp. Biol. Med. 95, 729 (1957), was employed. A test compound suspended in 1% methylcellulose was given orally to fasted (17-21 hours) female white mice, 5-20 animals per double blind test. Aqueous (0.01% phenyl-p-benzoquinone) phenylquinone was injected intraperitoneally at 24 minutes later using 0.20 ml per mouse. […] The effective analgesic dose for 50% of the mice (ED50) was calculated by the moving average method of Thompson, W. R., Bact. Rev. 11, 115-145 (1947).

[3] = Rattus norvegicus, Table VII, oral, read-out: percent reduction in paw volume at the indicated dose
[4] = Table VIII, oral, dose 27 (unit not given)

SMILES | ED50 ([2]; Table VII) [mg/kg] | ED50 ([1]; Rattus norvegicus, Table VII) [mg/kg] | ED50 ([2]; Table VIII) [mg/kg] | further results
FC(F)(F)Sc1cc(-c2ccccc2)c(-c2ccccc2)[nH]1 [Example 1, 4,5-Diphenyl-2-(trifluoromethylthio)pyrrole] | > 135 |  |  | inhibition in vivo at 25 mg/kg [1, 3]: 36%
COc1ccc(-c2cc(SC(F)(F)F)[nH]c2-c2ccc(OC)cc2)cc1 [Example 2, 4,5-Bis(4-methoxyphenyl)-2-(trifluoromethylthio)pyrrole] | 30 | 1.7 |  | 
Fc1ccc(-c2cc(SC(F)(F)F)[nH]c2-c2ccc(F)cc2)cc1 [Example 3, 4,5-bis(4-fluorophenyl)-2-(trifluoromethylthio)pyrrole] | > 135 | 1.5 |  | 
FC(F)(F)Sc1cc(-c2ccc(Cl)cc2)c(-c2ccc(Cl)cc2)[nH]1 [Example 4] | > 130 | 2.8 |  | 
CCOc1ccc(-c2[nH]c(SC(F)(F)F)cc2-c2ccc(F)cc2)cc1 [Example 5] | > 130 |  |  | inhibition in vivo at 27 mg/kg [1, 3]: 19%
Fc1ccc(-c2[nH]c(SC(F)(F)F)cc2-c2ccc(Cl)cc2)cc1 [Example 6] | > 108 | 2 |  | 
Fc1ccc(-c2cc(SC(F)(F)F)[nH]c2-c2ccc(Cl)cc2)cc1 [Example 7] | > 108 | 1.1 |  | 
COc1ccc(-c2[nH]c(SC(F)(F)F)cc2-c2ccc(F)cc2)cc1 [Example 8] | 26 | 30 |  | 
COc1ccc(-c2[nH]c(SC(F)(F)F)cc2-c2ccc(Cl)cc2)cc1 [Example 9] | > 108 | 6 |  | 
Fc1ccc(-c2cc(SC(F)(F)F)[nH]c2-c2ccccc2)cc1 [Example 10] | > 108 |  |  | inhibition in vivo at 27 mg/kg [1, 3]: 22%
FC(F)(F)Sc1cc(-c2ccc(Cl)cc2)c(-c2ccccc2)[nH]1 [Example 11] | > 108 | 25 |  | 
Cc1ccc(-c2cc(SC(F)(F)F)[nH]c2-c2ccc(C)cc2)cc1 [Example 12] | 16.2 | 25 |  | 
Fc1cccc(-c2cc(SC(F)(F)F)[nH]c2-c2cccc(F)c2)c1 [Example 13] | > 108 |  |  | inhibition in vivo at 27 mg/kg [1, 3]: 33%
Cc1c(SC(F)(F)F)[nH]c(-c2ccccc2)c1-c1ccccc1 [Example 15] |  |  | > 108 | ED50 ([1]; Rattus norvegicus, Table VIII): 7.5 mg/kg
FC(F)(F)Sc1cc(-c2ccccc2)c(-c2ccc(Cl)c(Cl)c2)[nH]1 [Example 16] | > 108 | 2.5 |  | 
FC(F)(F)Sc1cc(-c2ccccc2)c(-c2cccnc2)[nH]1 [Example 17] |  |  | > 108 | ED50 ([1]; Rattus norvegicus, Table VIII): 1.4 mg/kg
COc1ccc(-c2cc(SC(F)(F)F)[nH]c2-c2cccs2)cc1 [Example 18] |  |  | 78 | ED50 ([1]; Rattus norvegicus, Table VIII): ~100 mg/kg
Fc1ccccc1-c1cc(SC(F)(F)F)[nH]c1-c1ccccc1F [Example 19] |  |  | > 108 | Adjuvant Arthritis, value in parenthesis (percent reduction in paw volume/dose) ([1]; Table VIII, oral, dose 45 (unit not given)): 29%
COc1ccc(-c2[nH]c(SC(F)(F)F)cc2-c2ccccc2)cc1 [Example 20] |  |  | 22 | Adjuvant Arthritis, value in parenthesis (percent reduction in paw volume/dose) [1, 4]: 44%
Fc1ccc(-c2cc(SC(F)(F)F)[nH]c2-c2ccc(Br)cc2)cc1 [Example 21] |  |  | > 108 | ED50 ([1]; Rattus norvegicus, Table VIII): 3.5 mg/kg
CN(C)c1ccc(-c2[nH]c(SC(F)(F)F)cc2-c2ccc(F)cc2)cc1 [Example 22] |  |  | > 108 | ED50 ([1]; Rattus norvegicus, Table VIII): 8.8 mg/kg
Fc1ccc(-c2[nH]c(SC(F)(F)F)cc2-c2ccccc2)cc1 [Example 23] |  |  | > 108 | Adjuvant Arthritis, value in parenthesis (percent reduction in paw volume/dose) [1, 4]: 27%
FC(F)(F)Sc1cc(-c2ccccc2)c(-c2ccc(Cl)cc2)[nH]1 [Example 24] |  |  | > 135 | ED50 ([1]; Rattus norvegicus, Table VIII): 10 mg/kg
FC(F)(F)Sc1cc(-c2cccc(Cl)c2)c(-c2cccc(Cl)c2)[nH]1 [Example 25] |  |  | > 108 | ED50 ([1]; Rattus norvegicus, Table VIII): 25 mg/kg
CSc1ccc(-c2[nH]c(SC(F)(F)F)cc2-c2ccc(F)cc2)cc1 [Example 26] |  |  | > 108 | ED50 ([1]; Rattus norvegicus, Table VIII): 0.6 mg/kg
Fc1ccc(-c2cc(SC(F)(F)F)[nH]c2-c2cccs2)cc1 [Example 27] |  |  | > 108 | ED50 ([1]; Rattus norvegicus, Table VIII): ~27 mg/kg
Fc1ccc(-c2cc(SC(F)(F)F)[nH]c2-c2cccnc2)cc1 [Example 28] |  |  | > 135 | ED50 ([1]; Rattus norvegicus, Table VIII): 0.04 mg/kg
CS(=O)(=O)c1ccc(-c2[nH]c(SC(F)(F)F)cc2-c2ccc(F)cc2)cc1 [Example 29] |  |  | > 108 | ED50 ([1]; Rattus norvegicus, Table VIII): 0.15 mg/kg

SMILES | ED50 ([2]; Table VII) [mg/kg] | ED50 ([1]; Rattus norvegicus, Table VII) [mg/kg] | ED50 ([2]; Table VIII) [mg/kg] | further results
Cc1c(SC(F)(F)F)[nH]c(-c2ccc(Cl)cc2)c1-c1ccc(Cl)cc1 [Example 30] |  |  | > 108 | ED50 ([1]; Rattus norvegicus, Table VIII): 2 mg/kg
Cc1c(SC(F)(F)F)[nH]c(-c2ccc(F)cc2)c1-c1ccc(F)cc1 [Example 31] |  |  | > 135 | ED50 ([1]; Rattus norvegicus, Table VIII): 0.6 mg/kg
COc1ccc(-c2[nH]c(SC(F)(F)F)c(C)c2-c2ccc(OC)cc2)cc1 [Example 32] |  |  |  | ED50 ([1]; Rattus norvegicus, Table VIII): 2.2 mg/kg
CCCc1c(SC(F)(F)F)[nH]c(-c2ccc(F)cc2)c1-c1ccc(F)cc1 [Example 33] |  |  | > 108 | ED50 ([1]; Rattus norvegicus, Table VIII): 6.5 mg/kg
Fc1ccc(-c2cc(SC(F)(F)C(F)F)[nH]c2-c2ccc(F)cc2)cc1 [Example 35, 4,5-Bis(4-fluorophenyl)-2-(1,1,2,2-tetrafluoroethylthio)pyrrole] | > 108 | 4 |  | 
COc1ccc(-c2cc(SC)[nH]c2-c2ccc(OC)cc2)cc1 [Example 36] | > 130 | 5 |  | 
CSc1cc(-c2ccc(Cl)cc2)c(-c2ccc(Cl)cc2)[nH]1 [Example 38] | > 108 | 10 |  | 
FC(F)C(F)(F)Sc1cc(-c2ccc(Cl)cc2)c(-c2ccc(Cl)cc2)[nH]1 [Example 40] | > 108 |  |  | inhibition in vivo at 9 mg/kg [1, 3]: 36%
CSc1cc(-c2ccc(F)cc2)c(-c2ccc(F)cc2)[nH]1 [Example 41] | > 108 |  |  | inhibition in vivo at 27 mg/kg [1, 3]: 19%
CSc1cc(-c2ccc(Cl)cc2)c(-c2ccc(F)cc2)[nH]1 [Example 43] | > 108 | 20 |  | 
CSc1cc(-c2ccc(F)cc2)c(-c2ccc(Cl)cc2)[nH]1 [Example 44] | > 108 | 25 |  | 
COc1ccc(-c2[nH]c(SC)cc2-c2ccc(F)cc2)cc1 [Example 45] | 78 | 37 |  | 
COc1ccc(-c2[nH]c(SC)cc2-c2ccc(Cl)cc2)cc1 [Example 46] | 63 | 23 |  | 
CSc1cc(-c2ccc(F)cc2)c(-c2ccccc2)[nH]1 [Example 47] |  |  |  | inhibition in vivo at 200 mg/kg ([1]; Rattus norvegicus, Table VII, oral, dose 200 mg/kg, read-out: percent reduction in paw volume at the indicated dose): 46%
CSc1cc(-c2ccc(Cl)cc2)c(-c2ccccc2)[nH]1 [Example 48] | > 108 |  |  | inhibition in vivo at 45 mg/kg ([1]; Rattus norvegicus, Table VII, oral, dose 45 mg/kg, read-out: percent reduction in paw volume at the indicated dose): 22%
CSc1cc(-c2ccc(C)cc2)c(-c2ccc(C)cc2)[nH]1 [Example 49] | > 135 | 50 |  | 
O=S(=O)(c1cc(-c2ccccc2)c(-c2ccccc2)[nH]1)C(F)(F)F [Example 51] | 15 |  |  | inhibition in vivo at 25 mg/kg [1, 3]: 46%
[O-][S+](c1cc(-c2ccccc2)c(-c2ccccc2)[nH]1)C(F)(F)F (centres unmarked) [Example 52] | 30 |  |  | inhibition in vivo at 25 mg/kg [1, 3]: 31%
COc1ccc(-c2cc(S(=O)(=O)C(F)(F)F)[nH]c2-c2ccc(OC)cc2)cc1 [Example 53] | 78 |  |  | inhibition in vivo at 9 mg/kg [1, 3]: 36%
COc1ccc(-c2cc(S(C)(=O)=O)[nH]c2-c2ccc(OC)cc2)cc1 [Example 54] | 16 | 1 |  | 
CCS(=O)(=O)c1cc(-c2ccc(OC)cc2)c(-c2ccc(OC)cc2)[nH]1 [Example 55] | 19 | 9 |  | 
O=S(=O)(c1cc(-c2ccc(F)cc2)c(-c2ccc(F)cc2)[nH]1)C(F)(F)F [Example 56] | > 135 | 1.4 |  | 
[O-][S+](c1cc(-c2ccc(F)cc2)c(-c2ccc(F)cc2)[nH]1)C(F)(F)F (centres unmarked) [Example 57] | > 135 | 1 |  | 
O=S(=O)(c1cc(-c2ccc(Cl)cc2)c(-c2ccc(Cl)cc2)[nH]1)C(F)(F)F [Example 58] | < 130 | 1.7 |  | 
[O-][S+](c1cc(-c2ccc(Cl)cc2)c(-c2ccc(Cl)cc2)[nH]1)C(F)(F)F (centres unmarked) [Example 59] | > 135 | 2.7 |  | 
CCOc1ccc(-c2[nH]c(S(=O)(=O)C(F)(F)F)cc2-c2ccc(F)cc2)cc1 [Example 60] | > 130 | 16 |  | 
O=S(=O)(c1ccccc1)n1c(SC(F)(F)F)cc(-c2ccc(F)cc2)c1-c1ccc(F)cc1 [Example 77] |  |  |  | Adjuvant Arthritis, value in parenthesis (percent reduction in paw volume/dose) ([1]; Table VIII, oral, dose 9.0 (unit not given)): 37%
